Consider 17 molecules from patent US6827926B2, “Metallotetrapyrrolic photosensitizing agents for use in photodynamic therapy” (Miravant Pharmaceuticals, Inc., priority 2001, dated 2004).

Read-outs that look alike come from different tables or passages of the source.

The subject of data set [1] is normal uninjured rat carotid arteries (medial and adventitial cell populations). Nature of the data set: In vivo rat carotid artery acellularity after PDT. Particulars: for Max % rat Artery Accelularity: Table 3, drug dose 1 μMol, 50 J/cm^2, 3 days post treatment. On the set-up: species or system Sprague Dawley rats. The procedure:
The acute effects of metallated photosensitizers, in response to light activation, to cause depletion of cell populations in the medial and adventitial layers of vessels was measured in normal uninjured rat carotid arteries. […] Shortly before the light treatment, the rats were anaesthetized with 3.5% isoflurane (Abbott Laboratories, IL, USA) and the femoral region of the right leg was shaved and cleaned. […] A direct arteriotomy was performed and a light balloon catheter ([…] Medical Technologies, Inc) was introduced into the vessel and advanced retrogradely into a non-manipulated region of the left common carotid artery via the abdominal aorta. […] After light treatment and removal of the catheter, the right femoral artery was tied off and the skin wound was closed. Rats were sacrificed three days post treatment as this corresponds to the known peak time that vascular cells, e.g., VSMC and myofibroblasts, proliferate and migrate in response to an injury. The area spanning both left and right carotid arteries and surrounding tissue was harvested, fixed, embedded in paraffin and sectioned. The tissues were stained with Hematoxylin and Eosin (Fisher Scientific, PA) and examined by light microscopy to histologically assess the cell population density in the medial and adventitial layers of the PDT-treated vessel wall. […] Metallo azaporphyrins with Ga, Zn, Al, Sn were excited at 575 nm, while Pt azaporphyrins were excited at 532 nm.

Data set [2] has as its system V79 (Chinese Hamster Lung Fibroblasts) cells. The data set can be described thus: In vitro cytotoxicity assay (light EC50, Alamar blue). The format is cell-based. The procedure:
The in vitro biological evaluation of photosensitizers for their ability to photosensitize cells was performed using standard procedures. Using 5% FBS/DMEM phenol-free media, wells (180 μl/well) were plated with 5×10^4 V79 (Chinese Hamster Lung Fibroblasts) cells/ml into two 96 well plates. Plate 1 was light-treated and plate 2 served as a control. The plates were Incubated at 37° C., 5% CO2 for 3-5 hours. Standard solutions of the photosensitizers were dissolved in pre-filtered Dimethyl Sulfoxide (DMSO). Drug was diluted in 5% FBS DMEM phenol free medium. Final drug concentrations for light and dark experiments were 0.01, 0.1, 1.0, 3.0 and 5.0 μM. Twenty microliters of each concentration were added to six replicate wells to the light and dark plate. The plates were wrapped in aluminum foil to avoid photoactivation and mixed in a gyratory shaker for approximately 2 minutes. Both plates were incubated for 24 hours at 37° C., 5% CO2. After a 24 hour incubation, drug-containing media was aspirated from the plates. Each well was rinsed with 180 μl Hepes buffer salt solution (HBSS) then aspirated to remove the HBSS. 180 μl of fresh media were added (5% FBS/DMEM phenol-free) to each well. […] Plate 2 was not light treated. Immediately after light treatment, 20 μl Alamar blue was added to each well in plate 1. Alamar blue was added to plate 2 immediately after fresh media was added. The plates were mixed on a gyratory shaker for 5 min.
Both plates were incubated under dark conditions for 24 hours at 37° C., 5% CO2. After 24 hour incubation, the plates were read on a plate reader spectrophotometer (Spectra Max 250) at wavelengths 570 and 600 nm. and the percentage of cell survival recorded.
On the technique in general: The colour change of resazurin is a common sign of viable cells or microbes.

In data set [3] the test system is normal skin of CD Hairless male rats. The format is in vivo, rat. An excerpt:
We tested metallo- and metal-free tetrapyrroles systemically (see following section) for normal skin response in relation to the pharmacodynamic distribution of the photosensitizers in CD hairless rats. The skin of CD hairless rats are poorly developed, often referred to as hyperkeratotic, with various sized cystic hair follicles containing concentric lamellar accumulations of keratinaceous material, which are often associated with enlarged sebaceous glands. It quickly became apparent that gallium tetrapyrroles induced a marked clearing of the hyperkeratotic lesions in the treatment areas on the hairless rats. In fact, this clearing could be induced without necrosis of the skin. No other metallotetrapyrrole type produced such effects. This observation led us to assess the metallotetrapyrrolic compounds for skin restructuring effects both topically and systemically and for their ability to reduce hair growth in the following animal models.
Photosensitizer normal skin response as well as skin healing response, was evaluated using CD Hairless male rats. Photosensitizers were administered in an liposomal egg yolk phospholipid formulation at 1, 1.5 and 2 μmol/kg body weight formulation per dose group as a single bolus intravenous injection given through a marginal tail vein using a 27 gauge needle and a 1 cc tuberculin syringe. Normal skin responses were evaluated by irradiating several spots on the skin of the rat with a 532 nm laser (150 mW/cm^2, 150J, 1 cm diameter) at 1, 6, 24, 48, and 96 hrs post injection. Normal skin responses were evaluated and documented. The time at which the last spot is observed at the concentration injected is reported in the far right hand column in Tables 3, 4, 5 and 6. Skin samples were taken for histological evaluation at days 1, 10, 20 and 22 post light treatment. Rats were housed under normal lighting and all study procedures involving the test article were conducted under light filtered through blue and green Roscolox light filters to prevent photoactivation or degradation of the drug.

Setting [4] is: Table 3 porphyrins, 24 h drug incubation, 532 nm, 1.25 J/cm^2, read-out: In Vitro EC50 Light.
Where [5] appears, read: Table 3, time of last skin spot observed post injection, 1 μmol, 532 nm laser.

`CCCOC(=O)CCCC1=C(C)C2=Cc3c(CC)c(C)c4[n]3[Ga]([Cl])[n]3c(c(C)c(CCCC(=O)OCCC)c3=CC1=N2)=CC1=NC(=C4)C(CC)=C1C` [Example 50, Gallium 8,13-diethyl-3,7,12,17-tetramethylporphyrin-2,18-di(butanoic acid propyl ester)]: the “Max % rat Artery Accelularity” value in data set [1] was determined as 80%. For the same molecule, in data set [2] (setting [4]), the EC50 was 400 nM. The “Normal skin Response (1 μmol)” value in data set [3] (setting [5]) was 48 h.

For `CCOC(=O)CCC1=C(C)c2cc3[n-]c(cc4nc(cc5[n-]c(cc1n2)c(CCC(=O)OCC)c5C)C=C4C)cc3C.[Cl-].[Ga+3]` [Example 5, Gallium Chloride Deuteroporphyrin Diethyl Ester], the “Max % rat Artery Accelularity” value in data set [1] amounted to 80%. Moreover, the EC50 in data set [2] (setting [4]) was determined as 400 nM. Also, the “Normal skin Response (1 μmol)” value in data set [3] (rat, in vivo) stood at 48 h.

As for “Gallium Chloride 3,7,14,17-tetramethyl-5,10-diazaporphyrin-2,8,12,18-tetra(propionic acid methyl ester) [Example 116]”, the “Max % Rat Artery Accelularity” value in data set [1] (drug dose 1 (μMol), i.v., 50 J/cm^2, 160 mW/cm^2, Ga excited at 575 nm, sacrifice three days post treatment) is 55%. Further, the EC50 in data set [2] (light EC50, metallodiazaporphyrins, read-out: In Vitro EC(50)) was determined as 350 nM. The “Normnal skin Response (1 μmol)” value in data set [3] (rat, in vivo) was 4.

For the molecule `CCC1=C(C)c2cc3[n-]c(cc4nc(cc5[n-]c(cc1n2)c(C)c5CCC(=O)NCCCO)C(CCC(=O)NCCCO)=C4C)c(C)c3CC.[Cl-].[Ga+3]` [Example 66, Gallium Chloride Mesoporphyrin di(3-hydroxypropylamide)], the EC50 in data set [2] (setting [4]) came out at 200 nM. Also, the “Normal skin Response (1 μmol) in hrs” value in data set [3] (rat, in vivo) is “None”.

Take `CCC1=C(C)c2cc3[n-]c(cc4nc(cc5[n-]c(cc1n2)c(C)c5CCC(=O)OC)C(CCC(=O)OC)=C4C)c(C)c3CC.[Zn+2]` [Example 33, Zinc Mesoporphyrin Dimethyl Ester]: the “Max % rat Artery Accelularity” value in data set [1] worked out at 0%. Moreover, the “Normal skin Response (1 μmol)” value in data set [3] (rat, in vivo) worked out at 24 h.

Take `CCC1=C(CC)C2=Nc3c(CC)c(CC)c4[n]3[In]([Cl])[n]3c(c(C)c(CCCOC)c3=CC3=NC(=C4)C(C)=C3CCCOC)=CC1=N2` [Example 107, Indium Chloride 7,8,12,13-tetraethyl-12,17-dimethyl-10-azaporphyrin-2,18-di(3-methoxypropyl)]: in data set [2] (Table 4 azaporphyrins, 575 nm (Pt azaporphyrins 532 nm), 1.25 J/cm^2, read-out: In Vitro EC(50)), the EC50 is 50 nM. Also, in data set [3] (rat, in vivo), the “Normal skin Response (1 μmol)” value was determined as 96 h.

Consider `COC(=O)CCC1=C(C)c2cc3[n-]c(cc4nc(cc5[n-]c(cc1n2)c(CCC(=O)OC)c5C)C(C)=C4C=CCN(C)C)c(C)c3C=CCN(C)C.[Ga+3].[OH-]` [Example 43, Gallium Hydroxy 3,8-Bis-(N,N-dimethylaminoprop-2-en-3-yl)deuteroporphyrin dimethyl ester], for which the EC50 in data set [2] (setting [4]) turned out to be 2450 nM. Also, the “Normal skin Response (1 μmol) in hrs” value in data set [3] (rat, in vivo) was “None”.

On to `CCC1=C(C)C2=[N+]3C1=Cc1c(C)c(CC)c4[n]1[Ga-2]31([OH])[n]3c(c(C)c(CCC(=O)NCCN(C)C)c3=CC3=[N+]1C(=C4)C(C)=C3CCC(=O)NCCN(C)C)=C2` [Example 70, Gallium Hydroxy Mesoporphyrin di-(N,N-dimethylaminoethylamide)], for which the EC50 in data set [2] (setting [4]) came to 1700 nM. Moreover, the “Normal skin Response (1 μmol) in hrs” value in data set [3] (rat, in vivo) is recorded as “None”.

Regarding `CCC1=C(CC)C2=[N+]3C1=Nc1c(CC)c(CC)c4[n]1[Pt-2]31[n]3c(c(C)c(CCC(=O)[O-])c3=CC3=[N+]1C(=C4)C(C)=C3CCC(=O)[O-])=C2.[K+].[K+]` (stereo not shown) [Example 86, Platinum 7,8,12,13-tetraethyl-12,17-dimethyl-10-azaporphyrin-2,18-di(propionic acid Potassium Salt)], in data set [3] (rat, in vivo), the “Normal skin Response (1 μmol)” value came to 96 h.

As for `CCC1=C(C)c2cc3[n-]c(cc4nc(cc5[n-]c(cc1n2)c(C)c5CC)C(C)=C4CCCN(CC)CC)c(CCCN(CC)CC)c3C.[Zn+2]` [Example 79, Zinc 8,13-diethyl-3,7,12,17 tetramethylporphyrin-2,18-di((N,N-diethyl)-3-aminopropyl)], the “Normal skin Response (1 μmol) in hrs” value in data set [3] (rat, in vivo) is “None”.

In the case of `CCC1=C(C)c2cc3[nH]c(cc4nc(cc5[nH]c(cc1n2)c(C)c5CCC(=O)NCCN(C)C)C(CCC(=O)NCCN(C)C)=C4C)c(C)c3CC.[Pt]` [Example 71, Platinum Mesoporphyrin di(N,N-dimethylaminoethylamide)], the EC50 in data set [2] (setting [4]) turned out to be 200 nM. Besides, in data set [3] (rat, in vivo), the “Normal skin Response (1 μmol)” value came to 96 h.

Regarding `CCC1=C(C)C2=[N+]3C1=Cc1c(C)c(CC)c4[n]1[Zn-2]31[n]3c(c(C)c(CCC(=O)NCCCN5CCOCC5)c3=CC3=[N+]1C(=C4)C(C)=C3CCC(=O)NCCCN1CCOCC1)=C2` (stereo not shown) [Example 63, Zinc Mesoporphyrin 3-(N-morpholino)propylamide], the EC50 in data set [2] (setting [4]) was found to be 25 nM. The “Normal skin Response (1 μmol) in hrs” value in data set [3] (rat, in vivo) was “None”.

Consider `CCOP(=O)(CCCC1=C(C)c2cc3cc(C)c(cc4nc(cc5[n-]c(cc1n2)c(CCCP(=O)(OCC)OCC)c5C)C(C)=C4)[n-]3)OCC.[Cl-].[In+3]` [Example 81, Indium Chloride 3,7,12,17-tetramethylporphyrin-2,18-di((3′-diethylphosphono)propyl)], for which, in data set [2] (setting [4]), the EC50 came out at 400 nM. In data set [3] (setting [5]), the “Normal skin Response (1 μmol)” value came out at 48 h. In data set [3] (text b240), the “photodynamic activity in vivo” value was “photodynamically active in vivo”.

In the case of `CCC1=C(CC)C2=[N+]3C1=Nc1c(CC)c(CC)c4[n]1[Ga-2]31([OH])[n]3c(c(C)c(CCC(=O)[O-])c3=CC3=[N+]1C(=C4)C(C)=C3CCC(=O)[O-])=C2.[Na+].[Na+]` [Example 88, Gallium Hydroxy 7,8,12,13-tetraethyl-12,17-dimethyl-10-azaporphyrin-2,18-di(propionic acid Sodium Salt)], the “acellularity following PDT of rat arteries at longer treatment times post injection” value in data set [1] (16, 24 hrs post injection) is reported as “significant acellularity”. Also, in data set [1] (4 hrs post administration), the “accelularity in rat artery at a four hour treatment point” value is on record as 10%. For the same molecule, in data set [1] (Table 4, drug dose 4 μMol, 4 hrs), the “Max % Rat Artery Accelularity” value is given as 10 (4 hrs) %. The “Max % Rat Artery Accelularity” value in data set [1] (Table 4, drug dose 4 μMol, 24 hrs) is recorded as 100 (24 hrs) %. Also, in data set [3] (rat, in vivo), the “Normal skin Response (1 μmol) in hrs” value is “None” and the “normal skin response at the drug doses used” value was “no observed normal skin response”.

“Platinum Mesoporphyrin di(2-ethoxyethanolamide) [Example 69]”: in data set [2] (setting [4]), the EC50 amounted to 500 nM. In data set [3] (rat, in vivo), the “Normal skin Response (1 μmol) in hrs” value is reported as “None”.

As to `CCC1=C(C)c2cc3[n-]c(cc4nc(cc5[n-]c(cc1n2)c(C)c5CC)C(C)=C4CCCN1CCCC1)c(CCCN1CCCC1)c3C.[In+3].[OH-]` [Example 76, Indium hydroxy 8,13-diethyl-3,7,12,17-tetramethylporphyrin-2,18-di(3-(N-pyrrolidino)propyl)], the EC50 in data set [2] (setting [4]) stood at 20 nM. The “Normal skin Response (1 μmol)” value in data set [3] (setting [5]) came to 96 h.

Consider `CCC1=C(C)C2=NC1=Cc1c(C)c(CC)c3[n]1[Pt][n]1c(c(C)c(CCCC(=O)OC)c1=CC1=NC(=C3)C(C)=C1CCCC(=O)OC)=C2` [Example 47, Platinum 8,13-diethyl-3,7,12,17-tetramethylporphyrin-2,18-di(butanoic acid methyl ester)], for which the EC50 in data set [2] (setting [4]) amounted to 200 nM. Further, the “Normal skin Response (1 μmol)” value in data set [3] (setting [5]) came out at 48 h.
